ChEMBL document CHEMBL1131783, “Prodrugs of CL316243: a selective beta3-adrenergic receptor agonist for treating obesity and diabetes” (Bioorg Med Chem Lett, 1999)

Key:
[1] = species on record: Mus musculus; test: The compound was evaluated for the % glucose lowering along with drug intake over the test period of 5-7 days in mice
[2] = target: Beta-3 adrenergic receptor (Rattus norvegicus) (UniProt P26255); test: Effective dose required for beta-3-adrenergic activity against free fatty acid (FFA) in rat plasma; assay type: functional
[3] = Partition coefficient (logP); assay type: physicochemical; details: octanol/water
[4] = target: Beta-3 adrenergic receptor (Rattus norvegicus) (UniProt P26255); test: Beta-3-adrenergic activity measured by percent response against free fatty acid (FFA) in rat plasma at a dosage of 0.1 mg/kg; assay type: functional, organism-based; design: dose 0.1 mg/kg
[5] = target: Beta-3 adrenergic receptor (Rattus norvegicus) (UniProt P26255); test: Compound was evaluated for the beta-3-adrenergic activity by measuring % response against free fatty acid (FFA) in rat plasma at a dosage of 0.1 mg/kg; assay type: functional, organism-based; design: dose 0.1 mg/kg

Sequence of Beta-3 adrenergic receptor (Rattus norvegicus) (P26255 whole entry): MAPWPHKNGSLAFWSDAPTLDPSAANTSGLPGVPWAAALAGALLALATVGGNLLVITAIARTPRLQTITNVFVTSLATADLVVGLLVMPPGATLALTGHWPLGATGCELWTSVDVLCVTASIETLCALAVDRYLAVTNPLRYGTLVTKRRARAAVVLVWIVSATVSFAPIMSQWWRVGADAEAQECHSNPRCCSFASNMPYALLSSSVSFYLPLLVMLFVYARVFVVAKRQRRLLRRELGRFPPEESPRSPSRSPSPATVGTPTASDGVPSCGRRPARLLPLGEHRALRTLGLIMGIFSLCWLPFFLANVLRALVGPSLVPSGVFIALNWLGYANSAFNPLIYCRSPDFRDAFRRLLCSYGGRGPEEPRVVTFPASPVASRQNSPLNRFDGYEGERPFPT

Structure (SMILES)	ED50 [1] [mg/kg]	ED50 [2] [mg/kg]	logP [3]	Response [4] [%]	Response [5] [%]
C[C@H](Cc1ccc2c(c1)OC(C(=O)OCC(C)(C)C)(C(=O)OCC(C)(C)C)O2)NC[C@H](O)c1cccc(Cl)c1	0.028	0.027	2.16	134	
C[C@H](Cc1ccc2c(c1)OC(C(=O)OCC1CCC1)(C(=O)OCC1CCC1)O2)NC[C@H](O)c1cccc(Cl)c1	0.128	0.071	2.34	83	
CC(C)OC(=O)C1(C(=O)OC(C)C)Oc2ccc(C[C@@H](C)NC[C@H](O)c3cccc(Cl)c3)cc2O1	0.056	0.061	1.29	100	
CC(C)CCOC(=O)C1(C(=O)OCCC(C)C)Oc2ccc(C[C@@H](C)NC[C@H](O)c3cccc(Cl)c3)cc2O1	0.11	0.026	3.77	109	
C[C@H](Cc1ccc2c(c1)OC(C(=O)OCCC(C)(C)C)(C(=O)OCCC(C)(C)C)O2)NC[C@H](O)c1cccc(Cl)c1	0.201	0.08	3.21	71	
C[C@H](Cc1ccc2c(c1)OC(C(=O)[O-])(C(=O)[O-])O2)NC[C@H](O)c1cccc(Cl)c1.[Na+].[Na+]	0.54	0.24	0.046		2
C[C@H](Cc1ccc2c(c1)OC(C(=O)OCCc1cccs1)(C(=O)OCCc1cccs1)O2)NC[C@H](O)c1cccc(Cl)c1	0.208	0.076		77	
C[C@H](Cc1ccc2c(c1)OC(C(=O)OCCc1cccc(Br)c1)(C(=O)OCCc1cccc(Br)c1)O2)NC[C@H](O)c1cccc(Cl)c1				71	
C[C@H](Cc1ccc2c(c1)OC(C(=O)OCCCc1ccccc1)(C(=O)OCCCc1ccccc1)O2)NC[C@H](O)c1cccc(Cl)c1				61	
C[C@H](Cc1ccc2c(c1)OC(C(=O)OCC[Si](C)(C)C)(C(=O)OCC[Si](C)(C)C)O2)NC[C@H](O)c1cccc(Cl)c1				60	
C=CCOC(=O)C1(C(=O)OCC=C)Oc2ccc(C[C@@H](C)NC[C@H](O)c3cccc(Cl)c3)cc2O1				86	
C[C@H](Cc1ccc2c(c1)OC(C(=O)O)(C(=O)OCCC(C)(C)C)O2)NC[C@H](O)c1cccc(Cl)c1 (stereo partly drawn)				61	
C[C@H](Cc1ccc2c(c1)OC(C(=O)OCC(=O)Oc1ccccc1)(C(=O)OCC(=O)Oc1ccccc1)O2)NC[C@H](O)c1cccc(Cl)c1				37	
C[C@H](Cc1ccc2c(c1)OC(C(=O)OCCc1ccccc1)(C(=O)OCCc1ccccc1)O2)NC[C@H](O)c1cccc(Cl)c1	0.156	0.071		95	
C[C@H](Cc1ccc2c(c1)OC(C(=O)O)(C(=O)OCC(C)(C)C)O2)NC[C@H](O)c1cccc(Cl)c1 (stereo partly drawn)				81	
C[C@H](Cc1ccc2c(c1)OC(C(=O)OCCOc1ccc(Cl)cc1)(C(=O)OCCOc1ccc(Cl)cc1)O2)NC[C@H](O)c1cccc(Cl)c1				26	
COC(=O)C(C)OC(=O)C1(C(=O)OC(C)C(=O)OC)Oc2ccc(C[C@@H](C)NC[C@H](O)c3cccc(Cl)c3)cc2O1 (stereo partly drawn)				42	
CCCC(=O)OCOC(=O)C1(C(=O)OCOC(=O)CCC)Oc2ccc(C[C@@H](C)NC[C@H](O)c3cccc(Cl)c3)cc2O1				24	
C[C@H](Cc1ccc2c(c1)OC(C(=O)OCCOc1cccc(Cl)c1)(C(=O)OCCOc1cccc(Cl)c1)O2)NC[C@H](O)c1cccc(Cl)c1				88	
CCOC(=O)C1(C(=O)OCC)Oc2ccc(C[C@@H](C)NC[C@H](O)c3cccc(Cl)c3)cc2O1	0.1	0.034	0.35	114	
C[C@H](Cc1ccc2c(c1)OC(C(=O)O)(C(=O)OCCOc1ccccc1)O2)NC[C@H](O)c1cccc(Cl)c1 (stereo partly drawn)				51	
CCCCOC(=O)C1(C(=O)OCCCC)Oc2ccc(C[C@@H](C)NC[C@H](O)c3cccc(Cl)c3)cc2O1				83	
COCCOCCOC(=O)C1(C(=O)OCCOCCOC)Oc2ccc(C[C@@H](C)NC[C@H](O)c3cccc(Cl)c3)cc2O1				71	
